Measured values: patent US20250134952A1, “METHODS FOR IMPROVING THE EFFICACY OF HDAC INHIBITOR THERAPY AND PREDICTING THE RESPONSE TO TREATMENT WITH HDAC INHIBITOR” (INSTITUT NATIONAL DE LA SANTÉ ET DE LA RECHERCHE MÉDICALE, priority 2021, published 2025)

How the values were obtained:
breast cancer cell lines = test: Preliminary experiments: lowest dose of TSA inducing cellular responses; format: cell-based, human
Method: To dissect the role of Tau in controlling chromatin we sought to perturb chromatin structure by inhibiting histone deacetylation with the pan-histone deacetylase-inhibitor trichostatin A (TSA). In our preliminary experiments we found the lowest dose of TSA inducing cellular responses was 100 nM and we used this concentration in all the following experiments. First, we evaluated cell death, apoptosis and cell cycle progression by flow cytometric analyses in the two cell lines (as above we just illustrate our results with MCF7 cells in the main paper). We tested the effect of TSA in the presence or absence of short hairpin RNAs (Tau and Control). After 48 hours there was a strong increase in the number of dead cells from less 2% to >50% in the Tau-knockdown cells and a lesser increase to 38% in sh-ctrl cells (FIG. 1). In agreement, apoptosis was measured at 48% and 30% respectively (FIG. 1C).

[1] = tested on: MCF7shctrl and MCF7shTau subclones; test: Apoptosis by flow cytometry of PI-positive and Annexin-V-positive cells; format: cell-based, human; settings: 100 nM TSA, 48 h
Method: FIG. 1: Tau inhibition increases MCF7 breast cancer cell line sensitivity to TSA. (A) Tau protein expression in MCF7, MCF7shctrl and shTau were quantify by Elisa. (B) Effect of 100 nM TSA (48 h) on cell death in the MCF7shctrl and MCF7shTau subclones. Cell death was determined by staining and flow cytometric analysis as described in the materials and methods. (C) Effect of 100 nM TSA (48 h) on apoptosis in the MCF7shctrl and MCF7shTau subclones. Apoptosis was determined by flow cytometric analysis of the PI-positive and Annexin-V-positive cells as described in the materials and methods. (D) Cell cycle distribution was determined by FACS analysis of combined propidium iodide and EdU staining in MCF7shctrl and MCF7shTau in the absence or presence 100 nM TSA, 48 h. Data are mean±SD **P<0.01***P<0.001. […]
SH-SY5Y human neuroblastoma cells expressing Tau4R tagged with the streptavidin-binding peptide (SBP) (referred as SH-SY5Y-(SBP)Tau4R) (Chauderlier et al., 2018), SH-SY5Y-Tet-on-Tau4R, Hela cells, MCF7 and MDA-MB-231 were cultured in Dulbecco's Modified Eagle's Medium with 10% fetal bovine serum, 2 mM L-glutamine and 50 U/ml penicillin/streptomycin (Gibco) at 37° C. in 5% CO2 humidified air. […] For stable clones, luciferase activities were measured using the luciferase assay system (Promega) and normalized against protein concentration. […]

[2] = tested on: GAL4 UAS promoter in GAL4UAS responsive luciferase reporter Hela stable cell line; test: ChIP-qPCR of H3 acetylation or Tau occupancy on the GAL4UAS promoter; format: cell-based
Text: (A) Chromatin immunoprecipitations-qPCR analysis of H3 acetylation and Tau occupancy on the GAPDH promoter in MCF7shctrl cells in the indicated conditions. MCF7shctrl cells were subjected to cross-linking by 1% formaldehyde. Chromatin fragments were then immunoprecipitated using antibodies (Ab) against acetylated H3 (ac-H3) or Tau and analyzed by quantitative PCR for the presence of the GAPDH promoter. (B) Functional organization of the p21 promoter. (C) ChIP-qPCR analysis of H3 acetylation in MCF7shctrl or shTau cells or (D) Tau occupancy in MCF7shctrl cells on the p21 promoter. (E) ChIP-qPCR analysis of H3 acetylation or Tau occupancy on the stably transfected GAL4UAS responsive luciferase reporter transfected, or not, with Tau4R, then 24 h later treated with 100 nM TSA for 24 h. Cells were then subjected to cross-linking by 1% formaldehyde. Chromatin fragments were then immunoprecipitated using antibodies (Ab) against acetylated H3 or Tau and analyzed by quantitative PCR for the presence of the GAL4 UAS promoter. Quantification of enrichment is represented as fold-enrichment relative to IgG. Data are mean±SD **P<0.01***P<0.001
The ChIP protocol used was previously described (Lefebvre et al., 2006). […]

Question: What does the source list for `CC(/C=C/C(=O)NO)=C\[C@@H](C)C(=O)c1ccc(N(C)C)cc1` [TSA, 2,4-Heptadienamide, 7-[4-(dimethylamino)phenyl]-N-hydroxy-4,6-dimethyl-7-oxo-, (2E,4E,6R)-]?
Answer: lowest dose of TSA inducing cellular responses (breast cancer cell lines): 100 nM; apoptosis ([1]; Tau-knockdown cells (MCF7shTau)): 48%; apoptosis ([1]; sh-ctrl cells (MCF7shctrl)): 30%; TSA-induced increase of ac-H3 in the presence of transfected Tau4R ([2]; 100 nM TSA, Tau4R transfected HeLa cells): abrogated; Tau4R enrichment ([2]; TSA-treated condition (100 nM), Tau4R transfected): 16 fold
